# Laboratory results from patent US20230414569A1, “ORAL CANINE FEED AND METHODS FOR CONTROLLING FLEA INFESTATIONS IN A CANINE” (In the Bowl Animal Health, Inc., priority 2021, published 2023).
# What was measured:
# [1] = Plasma concentration in dogs after daily oral liquid dosing (Example 1); assay type: in vivo; details: dog plasma, individual canines, 0.75 mg/kg/day oral days 0-29; Day -1 (pre-dose)
# Experimental: Each dog in the treatment group is to receive by mouth a liquid formulation of isoxazoline. The dosage of 0.75 mg/kg is to be administered to the dogs on each of days 0-29.
# Dogs in the control group are not to receive isoxazoline or any other flea control treatment. Each dog in the treatment group is to be offered its daily ration (dry food) and the individual doses of liquid formulation are to be administered after the individual dog has eaten at least 25% of its total daily ration. After receiving the dose of isoxazoline, the dogs are to be allowed to continue eating. This mimics incorporating the isoxazoline in feed. Each dog in the treatment group and the control group is to be experimentally infested with 100 unfed adult fleas on test days 2, 5, 12, 20 and 35. Comb counts for live adult fleas are to be conducted on days 4, 7, 14, 21 and 37.
# [2] = Plasma levels in dogs given medicated daily feed at different dosage levels (Example 6); assay type: in vivo, dog; parameters: unit not given here
# Source text: Methods: A pool of dogs are to be preliminarily infested with ˜50 unfed adult R. sanguineus ticks in order to produce dogs that can suitably sustain a reliable infestation rate, defined as approximately 25% of attached ticks being live at the end of a 72-hour period. The 24 dogs with the highest live attached tick counts are to be selected for inclusion in the study. The 18 dogs with the highest live attached tick counts are to be randomly assigned to one of a control group and 2 treatment groups. The 6 dogs with the next highest live attached tick counts are to be assigned to a third treatment group.
# The dogs are to be housed individually during the study period and are to have ad libitum access to water.
# Each dog in a treatment group (test groups 2-4) is to receive a medicated daily feed from study days 0-49. The medicated daily feed is to be offered to the dogs for 1 hour on each of days 0-49 according to test groups listed in TABLE 7.
# Blood is to be drawn at 0, 1, 3, 6, 10, 24, 48, 96, 168, 240 and 336 hours after the initial dose of isoxazoline is administered.
structure (smiles),measurement,setting,value
"O=C(CNC(=O)c1sc(C2=NO[C@@](c3cc(Cl)c(F)c(Cl)c3)(C(F)(F)F)C2)c2c1CCC2)NCC(F)F [Mivorilaner, 3-[(5S)-5-(3,5-dichloro-4-fluorophenyl)-5-(trifluoromethyl)-4,5-dihydroisoxazol-3-yl]-N-[2-[(2,2-difluoroethyl)amino]-2-oxoethyl]-5,6-dihydro-4H-cyclopenta[c]thiophene-1-carboxamide]",Mivorilaner Concentration,[1],BLQ
same,average plasma concentration of isoxazoline,"[2]; Group 2 - 106 mg/kg feed (anticipated 1 mg/kg daily), 1 hr",49.98
same,average plasma concentration of isoxazoline,"[2]; Group 2 - 106 mg/kg feed (anticipated 1 mg/kg daily), 3 hr",292.00
same,average plasma concentration of isoxazoline,"[2]; Group 2 - 106 mg/kg feed (anticipated 1 mg/kg daily), 6 hr",539.00
same,average plasma concentration of isoxazoline,"[2]; Group 2 - 106 mg/kg feed (anticipated 1 mg/kg daily), 10 hr",505.40
same,average plasma concentration of isoxazoline,"[2]; Group 2 - 106 mg/kg feed (anticipated 1 mg/kg daily), 24 hr",458.60
same,average plasma concentration of isoxazoline,"[2]; Group 2 - 106 mg/kg feed (anticipated 1 mg/kg daily), 48 hr",771.83
same,average plasma concentration of isoxazoline,"[2]; Group 2 - 106 mg/kg feed (anticipated 1 mg/kg daily), 96 hr",1570.50
same,average plasma concentration of isoxazoline,"[2]; Group 2 - 106 mg/kg feed (anticipated 1 mg/kg daily), 168 hr",2156.67
same,average plasma concentration of isoxazoline,"[2]; Group 2 - 106 mg/kg feed (anticipated 1 mg/kg daily), 240 hr",3003.33
same,average plasma concentration of isoxazoline,"[2]; Group 2 - 106 mg/kg feed (anticipated 1 mg/kg daily), 336 hr",3290.00
same,average plasma concentration of isoxazoline,"[2]; Group 3 - 106 mg/kg feed (anticipated 1 mg/kg daily), 1 hr",40.41
same,average plasma concentration of isoxazoline,"[2]; Group 3 - 106 mg/kg feed (anticipated 1 mg/kg daily), 3 hr",264.83
same,average plasma concentration of isoxazoline,"[2]; Group 3 - 106 mg/kg feed (anticipated 1 mg/kg daily), 6 hr",467.50
same,average plasma concentration of isoxazoline,"[2]; Group 3 - 106 mg/kg feed (anticipated 1 mg/kg daily), 10 hr",419.17
same,average plasma concentration of isoxazoline,"[2]; Group 3 - 106 mg/kg feed (anticipated 1 mg/kg daily), 24 hr",435.17
same,average plasma concentration of isoxazoline,"[2]; Group 3 - 106 mg/kg feed (anticipated 1 mg/kg daily), 48 hr",781.83
same,average plasma concentration of isoxazoline,"[2]; Group 3 - 106 mg/kg feed (anticipated 1 mg/kg daily), 96 hr",1596.67
same,average plasma concentration of isoxazoline,"[2]; Group 3 - 106 mg/kg feed (anticipated 1 mg/kg daily), 168 hr",2406.67
same,average plasma concentration of isoxazoline,"[2]; Group 3 - 106 mg/kg feed (anticipated 1 mg/kg daily), 240 hr",3026.67
same,average plasma concentration of isoxazoline,"[2]; Group 3 - 106 mg/kg feed (anticipated 1 mg/kg daily), 336 hr",3516.67
same,average plasma concentration of isoxazoline,"[2]; Group 4 - 318 mg/kg feed (anticipated 3 mg/kg daily), 1 hr",143.75
same,average plasma concentration of isoxazoline,"[2]; Group 4 - 318 mg/kg feed (anticipated 3 mg/kg daily), 3 hr",846.50
same,average plasma concentration of isoxazoline,"[2]; Group 4 - 318 mg/kg feed (anticipated 3 mg/kg daily), 6 hr",1265.67
same,average plasma concentration of isoxazoline,"[2]; Group 4 - 318 mg/kg feed (anticipated 3 mg/kg daily), 10 hr",1198.17
same,average plasma concentration of isoxazoline,"[2]; Group 4 - 318 mg/kg feed (anticipated 3 mg/kg daily), 24 hr",1021.17
same,average plasma concentration of isoxazoline,"[2]; Group 4 - 318 mg/kg feed (anticipated 3 mg/kg daily), 48 hr",2011.67
same,average plasma concentration of isoxazoline,"[2]; Group 4 - 318 mg/kg feed (anticipated 3 mg/kg daily), 96 hr",3928.33
same,average plasma concentration of isoxazoline,"[2]; Group 4 - 318 mg/kg feed (anticipated 3 mg/kg daily), 168 hr",6461.67
same,average plasma concentration of isoxazoline,"[2]; Group 4 - 318 mg/kg feed (anticipated 3 mg/kg daily), 240 hr",8696.67
same,average plasma concentration of isoxazoline,"[2]; Group 4 - 318 mg/kg feed (anticipated 3 mg/kg daily), 336 hr",11600.00
